The values below come from ChEMBL document CHEMBL1201862, “PubChem BioAssay data set” (2004).

Holding throughout (experiment): NCI tumour cell line growth inhibition, 48 h
Test [1] concerns SK-MEL-5.
Test [2] concerns U-251.
Test [3] concerns HOP-92.
In test [4] the test system is UACC-257.
Test [5] deals with SF-295.
Test [6] deals with RPMI-8226.
For test [7], the system named is SK-OV-3.
The subject of test [8] is NCI-H460.
The subject of test [9] is HCC 2998.
In test [10] the test system is HCT-15.
For test [11], the system named is NCI-H23.
Test [12] relates to CCRF-CEM.
Test [13] deals with SNB-75.
Test [14] has as its system SF-268.
Test [15] deals with OVCAR-5.
Test [16] relates to K562.
Test [17] relates to NCI/ADR-RES.
The subject of test [18] is MDA-MB-231.
The subject of test [19] is PC-3.
Test [20] concerns DU-145.

The structures appear in SMILES notation.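 1) Cells in 96-well plates. 2) Compound, 48 h, 5 concentrations. 3) Linear interpolation between surrounding doses. 4) Unreached endpoint = highest concentration. GI50 is the concentration that inhibits growth by half.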 Active and inactive are the calls of the source. Cut-off read from the data, not from the text of the source: active = GI50 up to about 1.1 µM and inactive = higher.

In the case of `c1coc(CNc2[nH]cnc3nncc2-3)c1`, the GI50 in [1] is > 100 µM (inactive); in test [2], > 100 µM (inactive); in test [3], 35.8 µM (inactive); in test [4], > 100 µM (inactive); in test [5], > 100 µM (inactive); in test [6], 73.8 µM (inactive). Besides, the GI50 in [7] is > 100 µM (inactive); in test [8] it was > 100 µM (inactive); in test [9] it was > 100 µM (inactive); in test [10], over 100 µM; in test [11], 79.6 µM (inactive); in test [12], > 100 µM (inactive). Further, the GI50 in test [13] is 38.5 µM (inactive); in test [14], > 100 µM (inactive); in [15], > 100 µM (inactive); in [16], 57.8 µM (inactive).
Turning to `CCOc1ccc(N/C(=C(/C(Cl)=C(/Cl)NCCN)[N+](=O)[O-])n2nnc3ccccc32)cc1`, the GI50 is 35.8 µM (inactive) in test [2]; > 100 µM (inactive) in [4]; 49.5 µM (inactive) in test [17]; 70.5 µM (inactive) in test [5]; 30.9 µM (inactive) in test [6]; > 100 µM (inactive) in test [7]. The GI50 in test [18] is 25.9 µM (inactive); in test [8] it was > 100 µM (inactive); in [19], 28.8 µM (inactive); in test [9], > 100 µM (inactive); in [10], 17.9 µM; in test [11], 32.5 µM (inactive). In addition, the GI50 is 22.6 µM (inactive) in [12]; 46.8 µM (inactive) in [13]; 13.6 µM (inactive) in test [14]; 67.3 µM (inactive) in test [15]; 26.8 µM (inactive) in [16].
With `CNc1nc(N)nc(Nc2ccc(I)cc2)c1N=O`, the GI50 in test [1] was 96.2 µM (inactive); in test [4], 85.3 µM (inactive); in test [17], > 100 µM (inactive); in [5], > 100 µM (inactive); in [6], > 100 µM (inactive); in [18] it was > 100 µM (inactive). The GI50 in test [8] was > 100 µM (inactive); in test [19] it was > 100 µM (inactive); in test [9] it was > 100 µM (inactive); in test [20] it was > 100 µM (inactive); in test [10] it was over 100 µM; in [11] it was > 100 µM (inactive). Besides, the GI50 is > 100 µM (inactive) in test [12]; > 100 µM (inactive) in [13]; > 100 µM (inactive) in test [14]; > 100 µM (inactive) in test [15]; 68.2 µM (inactive) in test [16].
On to `CC(=O)OCC1OC(n2c(N)c(C#N)c(C)c(C#N)c2=S)C(OC(C)=O)C(OC(C)=O)C1OC(C)=O` (configuration not stated), for which the GI50 in [1], in test [2], in test [4], in test [17], in test [5] and in test [6] was > 100 µM (inactive) in each case. Besides, the GI50 was > 100 µM (inactive) in test [7]; > 100 µM (inactive) in test [8]; > 100 µM (inactive) in test [19]; > 100 µM (inactive) in [9]; > 100 µM (inactive) in test [20]; over 100 µM in test [10]. The GI50 in test [11], in [12], in test [13], in [14] and in [15] was > 100 µM (inactive) each time.
`C/C(=N\Nc1nc2ccccc2n1C)c1cnccn1`: the GI50 was 0.154 µM (active) in test [1]; 0.339 µM (active) in test [2]; 0.227 µM (active) in test [3]; 0.0483 µM (active) in test [4]; 0.164 µM (active) in [17]; 0.367 µM (active) in test [5]. For the same compound, the GI50 in test [6] was < 0.0297 µM (active); in [7], 0.292 µM (active); in test [18], 0.044 µM (active); in [8], 0.223 µM (active); in test [19], 0.0426 µM (active); in test [9] it was 1.33 µM (inactive). The GI50 is 0.0438 µM in test [10]; 0.105 µM (active) in test [11]; 0.0513 µM (active) in [12]; 5.13 µM (inactive) in test [13]; 0.0726 µM (active) in test [14]; < 0.0316 µM (active) in [16].
In the case of `O=C(CSCC(=O)N/N=C\c1ccccc1F)N/N=C\c1ccccc1F`, the GI50 in [1] was 64.1 µM (inactive); in test [2], 67.3 µM (inactive); in [3], > 100 µM (inactive); in [4], > 100 µM (inactive); in [17], 14 µM (inactive); in [5], 41.7 µM (inactive). In addition, the GI50 in test [6] is 36.3 µM (inactive); in [7], > 100 µM (inactive); in test [18], > 100 µM (inactive); in test [8] it was 99.5 µM (inactive); in test [9], 38.5 µM (inactive); in test [20], > 100 µM (inactive). Further, the GI50 in test [10] was 63.2 µM; in [11], > 100 µM (inactive); in test [12], 90.4 µM (inactive); in test [13] it was > 100 µM (inactive); in test [14], > 100 µM (inactive).
For `O=C1C=C(Br)C(=O)C(Br)=C1`, the GI50 is > 100 µM (inactive) in [1]; > 100 µM (inactive) in [2]; > 100 µM (inactive) in [3]; > 100 µM (inactive) in test [4]; > 100 µM (inactive) in [5]; 37.6 µM (inactive) in test [6]. Besides, the GI50 in [7] is > 100 µM (inactive); in test [8] it was > 100 µM (inactive); in [9], 74 µM (inactive); in test [10], over 79.8 µM; in [11], > 100 µM (inactive); in [12] it was > 50.1 µM (inactive). The GI50 in test [13] was > 100 µM (inactive); in [14], > 100 µM (inactive); in [15] it was > 100 µM (inactive); in [16], 33.3 µM (inactive).
As to `CC(C)=CC(=O)c1c(C(=O)O)nc2ccccc2[n+]1[O-]`, the GI50 in test [1], in test [2], in test [3], in [4], in [5] and in [6] was > 100 µM (inactive) throughout. Further, the GI50 in test [7] is > 100 µM (inactive); in [8] it was > 100 µM (inactive); in test [9] it was > 100 µM (inactive); in [10], over 100 µM; in test [11], > 100 µM (inactive); in [12] it was > 100 µM (inactive). Further, the GI50 in [13], in test [14], in test [15] and in [16] was > 100 µM (inactive) in each case.
Take `C=CCN1C(=O)N/C(=C\c2ccc(Cl)cc2)C1=O`: the GI50 in test [1], in test [2], in test [3], in [4], in test [17] and in [5] was > 100 µM (inactive) throughout. Also, the GI50 in [6] was > 100 µM (inactive); in [7], > 100 µM (inactive); in [18] it was > 100 µM (inactive); in test [8], > 100 µM (inactive); in [20] it was > 100 µM (inactive); in test [10] it was over 100 µM. Further, the GI50 in test [11], in test [12], in test [13], in test [14], in [15] and in test [16] was > 100 µM (inactive) in each case.
`COC1CC2CCC(C)[C@](O)(O2)C(=O)C(=O)N2CCCCC2C(=O)OC(C(C)CC2CCC(O)C(OC)C2)CC(=O)C(C)C=C(C)C(OC(=O)CN(C)C)C(OC)C(=O)C(C)CC(C)/C=C/C=C/C=C\1C` (some centres not stated): the GI50 in test [1] was 3.78 µM (inactive); in test [2], < 0.01 µM (active); in test [3] it was < 0.01 µM (active); in test [4], 11.3 µM (inactive); in [5], < 0.01 µM (active); in test [6] it was < 0.01 µM (active). Besides, the GI50 is < 0.01 µM (active) in [7]; 3.67 µM (inactive) in test [18]; 6.22 µM (inactive) in test [8]; < 0.01 µM (active) in test [19]; 7.38 µM (inactive) in test [20]; 10.4 µM in test [10]. Moreover, the GI50 in test [11] was 10.9 µM (inactive); in [12], < 0.01 µM (active); in test [13] it was < 0.01 µM (active); in test [14], 7.19 µM (inactive); in [15], 12.6 µM (inactive); in [16], < 0.01 µM (active).
For `c1ccc(CCN2CCN=C2Cc2ccccc2)cc1`, the GI50 in test [1] is > 100 µM (inactive); in test [2], > 100 µM (inactive); in [3] it was 28.6 µM (inactive); in test [4], > 100 µM (inactive); in [17], 90.4 µM (inactive); in test [5], > 100 µM (inactive). Also, the GI50 in [6] is 29 µM (inactive); in test [7], > 100 µM (inactive); in test [18], > 100 µM (inactive); in test [8] it was > 100 µM (inactive); in test [9], 21.3 µM (inactive); in [20], > 100 µM (inactive). The GI50 in test [10] was over 100 µM; in test [11], > 100 µM (inactive); in test [12] it was 37.3 µM (inactive); in [13], > 100 µM (inactive); in test [14], > 100 µM (inactive); in [15], > 100 µM (inactive). In test [16], the GI50 is 29.2 µM (inactive).
Turning to `C1=CCC[C@@H]2CN3CCCC/C=C\CCCC[C@H]4C[C@H](CN(CCCCCCCC1)C4)[C@H]2CC3`, the GI50 in [1] was 9.27 µM (inactive); in test [2], 8.51 µM (inactive); in [4], 10.2 µM (inactive); in test [5] it was 9.27 µM (inactive); in test [6], 8.11 µM (inactive); in test [7], > 50 µM (inactive). Further, the GI50 in [18] was 9.04 µM (inactive); in [8], 9.75 µM (inactive); in [19], 12.8 µM (inactive); in test [9], 7.59 µM (inactive); in [20], 18.2 µM (inactive); in test [10], 10.4 µM. For the same compound, the GI50 is 13.2 µM (inactive) in test [11]; 12.4 µM (inactive) in test [12]; 8.95 µM (inactive) in test [13]; 10.5 µM (inactive) in test [14]; 10.6 µM (inactive) in test [15]; 9.79 µM (inactive) in [16].
